Columns and labels:
[1] = target: Tyrosine-protein kinase receptor Tie-1 (Homo sapiens) (UniProt P35590); test: Inhibition of TIE1 (unknown origin) assessed as residual activity at 1000 nM by KINOMEscan analysis relative to control
[2] = target: T1, Ephrin type-B receptor 1 (Homo sapiens) (UniProt P54762); test: Inhibition of EPHB1 (unknown origin) assessed as residual activity at 1000 nM by KINOMEscan analysis relative to control
T1 sequence (whole entry): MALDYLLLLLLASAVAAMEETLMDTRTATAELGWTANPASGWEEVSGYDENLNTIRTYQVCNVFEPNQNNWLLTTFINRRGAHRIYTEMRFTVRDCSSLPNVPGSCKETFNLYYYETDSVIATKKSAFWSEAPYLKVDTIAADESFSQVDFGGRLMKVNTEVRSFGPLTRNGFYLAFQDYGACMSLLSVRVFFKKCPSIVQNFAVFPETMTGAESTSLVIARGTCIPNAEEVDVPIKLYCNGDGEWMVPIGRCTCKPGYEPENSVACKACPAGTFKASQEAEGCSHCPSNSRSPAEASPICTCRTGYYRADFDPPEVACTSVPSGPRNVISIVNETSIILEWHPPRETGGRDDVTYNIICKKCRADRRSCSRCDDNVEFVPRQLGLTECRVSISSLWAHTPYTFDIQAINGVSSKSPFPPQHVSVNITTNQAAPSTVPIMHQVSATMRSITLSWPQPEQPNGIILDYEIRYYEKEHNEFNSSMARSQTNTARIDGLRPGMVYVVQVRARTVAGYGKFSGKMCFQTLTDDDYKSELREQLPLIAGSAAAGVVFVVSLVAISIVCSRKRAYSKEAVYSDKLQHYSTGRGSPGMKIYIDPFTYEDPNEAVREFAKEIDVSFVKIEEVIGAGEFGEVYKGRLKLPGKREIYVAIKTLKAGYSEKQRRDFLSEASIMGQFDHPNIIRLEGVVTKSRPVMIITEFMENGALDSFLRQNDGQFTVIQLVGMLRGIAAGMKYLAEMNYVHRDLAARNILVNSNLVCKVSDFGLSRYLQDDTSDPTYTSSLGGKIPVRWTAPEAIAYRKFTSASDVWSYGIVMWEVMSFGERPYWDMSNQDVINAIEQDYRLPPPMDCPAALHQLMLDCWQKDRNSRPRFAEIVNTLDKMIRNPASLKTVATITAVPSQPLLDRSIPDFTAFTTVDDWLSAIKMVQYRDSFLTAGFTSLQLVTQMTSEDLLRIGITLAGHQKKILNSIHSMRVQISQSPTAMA

[3] = target: Interferon-induced, double-stranded RNA-activated protein kinase (Homo sapiens) (UniProt P19525); test: Inhibition of PRKR (unknown origin) assessed as residual activity at 1000 nM by KINOMEscan analysis relative to control
[4] = target: NT-3 growth factor receptor (Homo sapiens) (UniProt Q16288); test: Inhibition of TRKC (unknown origin) assessed as residual activity at 1000 nM by KINOMEscan analysis relative to control
[5] = target: Cyclin-dependent kinase 3 (Homo sapiens) (UniProt Q00526); test: Inhibition of CDK3 (unknown origin) assessed as residual activity at 1000 nM by KINOMEscan analysis relative to control
Sequence of Cyclin-dependent kinase 3 (Homo sapiens) (Q00526 whole entry, looked up, canonical isoform): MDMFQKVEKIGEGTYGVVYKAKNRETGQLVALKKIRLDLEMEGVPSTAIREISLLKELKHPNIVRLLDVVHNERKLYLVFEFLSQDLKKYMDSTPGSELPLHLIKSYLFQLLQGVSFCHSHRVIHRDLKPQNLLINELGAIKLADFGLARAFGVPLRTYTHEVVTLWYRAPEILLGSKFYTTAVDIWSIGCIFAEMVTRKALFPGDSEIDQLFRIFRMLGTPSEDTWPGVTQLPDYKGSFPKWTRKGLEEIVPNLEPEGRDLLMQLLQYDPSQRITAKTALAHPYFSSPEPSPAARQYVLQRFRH

[6] = tested on: Phosphatidylinositol 4,5-bisphosphate 3-kinase catalytic subunit alpha isoform (Homo sapiens), P42336 [E542K]; test: Inhibition of PIK3CA E542K mutant (unknown origin) assessed as residual activity at 1000 nM by KINOMEscan analysis relative to control
Sequence of Phosphatidylinositol 4,5-bisphosphate 3-kinase catalytic subunit alpha isoform (Homo sapiens), P42336 [E542K] (P42336 whole entry E542K, canonical isoform): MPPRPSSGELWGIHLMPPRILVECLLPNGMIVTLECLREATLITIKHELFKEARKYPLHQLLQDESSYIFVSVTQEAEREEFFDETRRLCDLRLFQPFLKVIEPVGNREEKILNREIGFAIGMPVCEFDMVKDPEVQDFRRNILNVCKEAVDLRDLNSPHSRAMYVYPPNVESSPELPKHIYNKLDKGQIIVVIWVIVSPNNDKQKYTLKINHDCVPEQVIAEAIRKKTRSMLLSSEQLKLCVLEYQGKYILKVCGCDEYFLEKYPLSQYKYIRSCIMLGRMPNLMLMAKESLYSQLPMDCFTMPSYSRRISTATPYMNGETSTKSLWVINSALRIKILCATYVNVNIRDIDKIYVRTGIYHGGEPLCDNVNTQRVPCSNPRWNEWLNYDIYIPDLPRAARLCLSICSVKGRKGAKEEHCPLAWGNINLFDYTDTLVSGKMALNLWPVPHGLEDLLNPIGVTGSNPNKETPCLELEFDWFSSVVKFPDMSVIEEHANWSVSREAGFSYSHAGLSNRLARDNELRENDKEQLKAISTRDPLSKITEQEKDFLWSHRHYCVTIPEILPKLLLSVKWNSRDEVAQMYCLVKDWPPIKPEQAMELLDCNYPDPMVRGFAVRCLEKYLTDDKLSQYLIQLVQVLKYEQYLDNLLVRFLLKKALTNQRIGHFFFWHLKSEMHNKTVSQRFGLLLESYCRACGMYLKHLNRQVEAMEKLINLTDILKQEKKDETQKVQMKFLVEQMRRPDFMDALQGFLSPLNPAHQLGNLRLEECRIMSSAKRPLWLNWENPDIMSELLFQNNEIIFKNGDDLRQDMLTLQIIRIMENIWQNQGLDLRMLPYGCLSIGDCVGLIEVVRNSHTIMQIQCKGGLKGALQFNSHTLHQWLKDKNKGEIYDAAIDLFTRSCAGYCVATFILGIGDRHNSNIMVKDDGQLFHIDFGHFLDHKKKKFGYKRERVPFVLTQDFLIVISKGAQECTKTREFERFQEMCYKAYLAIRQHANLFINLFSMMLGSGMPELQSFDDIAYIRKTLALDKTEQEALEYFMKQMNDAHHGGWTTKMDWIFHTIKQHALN

[7] = tested on: Tyrosine-protein kinase ABL1 (Homo sapiens), P00519 [F317I]; test: Inhibition of nonphosphorylated ABL1 F317I mutant (unknown origin) assessed as residual activity at 1000 nM by KINOMEscan analysis relative to control
[8] = target: Serine/threonine-protein kinase 25 (Homo sapiens) (UniProt O00506); test: Inhibition of YSK1 (unknown origin) assessed as residual activity at 1000 nM by KINOMEscan analysis relative to control
[9] = target: Homeodomain-interacting protein kinase 2 (Homo sapiens) (UniProt Q9H2X6); test: Inhibition of HIPK2 (unknown origin) assessed as residual activity at 1000 nM by KINOMEscan analysis relative to control
Sequence of Homeodomain-interacting protein kinase 2 (Homo sapiens) (Q9H2X6 whole entry, looked up): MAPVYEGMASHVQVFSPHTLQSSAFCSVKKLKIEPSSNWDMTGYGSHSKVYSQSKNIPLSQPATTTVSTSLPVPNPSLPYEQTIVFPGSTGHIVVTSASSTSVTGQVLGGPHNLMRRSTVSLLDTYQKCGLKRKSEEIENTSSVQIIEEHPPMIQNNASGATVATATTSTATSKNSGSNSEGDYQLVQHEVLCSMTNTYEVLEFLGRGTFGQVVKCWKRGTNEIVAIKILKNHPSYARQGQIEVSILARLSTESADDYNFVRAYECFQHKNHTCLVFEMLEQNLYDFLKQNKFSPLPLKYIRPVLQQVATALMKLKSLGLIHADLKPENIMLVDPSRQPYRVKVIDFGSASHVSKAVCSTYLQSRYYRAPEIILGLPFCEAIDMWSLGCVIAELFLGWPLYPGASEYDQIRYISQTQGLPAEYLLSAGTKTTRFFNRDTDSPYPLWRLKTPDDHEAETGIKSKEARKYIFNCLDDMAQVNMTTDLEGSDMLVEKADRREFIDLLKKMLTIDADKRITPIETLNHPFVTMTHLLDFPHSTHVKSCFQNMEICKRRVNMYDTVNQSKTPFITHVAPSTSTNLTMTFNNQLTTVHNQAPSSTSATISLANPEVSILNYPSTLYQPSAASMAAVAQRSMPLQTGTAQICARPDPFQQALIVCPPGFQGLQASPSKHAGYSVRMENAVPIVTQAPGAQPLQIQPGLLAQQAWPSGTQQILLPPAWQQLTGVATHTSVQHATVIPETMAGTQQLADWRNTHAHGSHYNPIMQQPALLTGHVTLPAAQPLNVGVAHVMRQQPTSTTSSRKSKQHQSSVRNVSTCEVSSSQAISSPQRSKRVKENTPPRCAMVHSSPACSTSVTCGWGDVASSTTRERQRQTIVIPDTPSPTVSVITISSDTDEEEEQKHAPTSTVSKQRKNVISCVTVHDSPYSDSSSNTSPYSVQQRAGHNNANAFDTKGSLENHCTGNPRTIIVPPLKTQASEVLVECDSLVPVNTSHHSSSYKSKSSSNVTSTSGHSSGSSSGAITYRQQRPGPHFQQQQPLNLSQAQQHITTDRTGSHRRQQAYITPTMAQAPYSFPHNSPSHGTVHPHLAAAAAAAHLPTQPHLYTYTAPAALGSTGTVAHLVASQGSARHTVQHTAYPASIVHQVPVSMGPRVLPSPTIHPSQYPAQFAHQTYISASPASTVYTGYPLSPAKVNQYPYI

[10] = target: Microtubule-associated serine/threonine-protein kinase 1 (Homo sapiens) (UniProt Q9Y2H9); test: Inhibition of MAST1 (unknown origin) assessed as residual activity at 1000 nM by KINOMEscan analysis relative to control
Sequence of Microtubule-associated serine/threonine-protein kinase 1 (Homo sapiens) (Q9Y2H9 whole entry, looked up): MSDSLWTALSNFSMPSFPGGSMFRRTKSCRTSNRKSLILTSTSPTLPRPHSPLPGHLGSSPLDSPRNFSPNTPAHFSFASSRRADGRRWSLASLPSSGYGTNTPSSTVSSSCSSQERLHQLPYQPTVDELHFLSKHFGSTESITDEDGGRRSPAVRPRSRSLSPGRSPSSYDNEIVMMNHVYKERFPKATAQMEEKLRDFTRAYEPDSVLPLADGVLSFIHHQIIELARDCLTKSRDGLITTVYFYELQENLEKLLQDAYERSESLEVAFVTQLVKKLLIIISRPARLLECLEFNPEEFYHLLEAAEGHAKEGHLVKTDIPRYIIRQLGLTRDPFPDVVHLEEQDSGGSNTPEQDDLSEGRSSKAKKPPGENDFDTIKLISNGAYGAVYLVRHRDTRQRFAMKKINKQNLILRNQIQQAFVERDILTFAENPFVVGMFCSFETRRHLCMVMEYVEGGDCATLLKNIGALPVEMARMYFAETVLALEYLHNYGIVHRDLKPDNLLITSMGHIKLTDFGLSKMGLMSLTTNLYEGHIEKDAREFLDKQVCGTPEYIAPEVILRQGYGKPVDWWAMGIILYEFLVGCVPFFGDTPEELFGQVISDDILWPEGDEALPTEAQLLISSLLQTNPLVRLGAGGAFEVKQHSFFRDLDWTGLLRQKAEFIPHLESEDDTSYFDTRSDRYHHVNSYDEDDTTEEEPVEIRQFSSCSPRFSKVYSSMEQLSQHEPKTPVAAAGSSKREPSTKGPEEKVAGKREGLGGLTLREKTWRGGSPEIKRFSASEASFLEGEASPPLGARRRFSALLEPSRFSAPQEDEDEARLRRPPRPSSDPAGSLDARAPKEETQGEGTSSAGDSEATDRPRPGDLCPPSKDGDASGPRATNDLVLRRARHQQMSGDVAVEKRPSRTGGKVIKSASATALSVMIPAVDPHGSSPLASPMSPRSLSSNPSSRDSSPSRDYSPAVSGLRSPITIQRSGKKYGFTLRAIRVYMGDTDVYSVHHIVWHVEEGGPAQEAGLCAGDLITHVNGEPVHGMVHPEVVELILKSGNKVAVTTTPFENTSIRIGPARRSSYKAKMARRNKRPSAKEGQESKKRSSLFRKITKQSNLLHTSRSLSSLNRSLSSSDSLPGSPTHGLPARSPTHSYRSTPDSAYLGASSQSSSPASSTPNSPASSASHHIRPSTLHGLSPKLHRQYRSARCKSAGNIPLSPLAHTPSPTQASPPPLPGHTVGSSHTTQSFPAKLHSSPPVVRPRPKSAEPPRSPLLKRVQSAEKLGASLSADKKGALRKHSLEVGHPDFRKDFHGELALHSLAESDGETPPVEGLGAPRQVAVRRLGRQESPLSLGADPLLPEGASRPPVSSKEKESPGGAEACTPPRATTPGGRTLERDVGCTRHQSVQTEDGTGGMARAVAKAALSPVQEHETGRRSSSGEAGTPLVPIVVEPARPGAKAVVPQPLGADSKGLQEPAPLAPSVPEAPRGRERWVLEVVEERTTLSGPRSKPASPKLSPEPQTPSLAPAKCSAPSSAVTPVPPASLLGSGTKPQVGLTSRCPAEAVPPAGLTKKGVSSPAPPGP

[11] = target: Myosin light chain kinase, smooth muscle (Homo sapiens) (UniProt Q15746); test: Inhibition of MYLK (unknown origin) assessed as residual activity at 1000 nM by KINOMEscan analysis relative to control
[12] = target: Dual specificity mitogen-activated protein kinase kinase 1 (Homo sapiens) (UniProt Q02750); test: Inhibition of MEK1 (unknown origin) assessed as residual activity at 1000 nM by KINOMEscan analysis relative to control
Sequence of Dual specificity mitogen-activated protein kinase kinase 1 (Homo sapiens) (Q02750 whole entry): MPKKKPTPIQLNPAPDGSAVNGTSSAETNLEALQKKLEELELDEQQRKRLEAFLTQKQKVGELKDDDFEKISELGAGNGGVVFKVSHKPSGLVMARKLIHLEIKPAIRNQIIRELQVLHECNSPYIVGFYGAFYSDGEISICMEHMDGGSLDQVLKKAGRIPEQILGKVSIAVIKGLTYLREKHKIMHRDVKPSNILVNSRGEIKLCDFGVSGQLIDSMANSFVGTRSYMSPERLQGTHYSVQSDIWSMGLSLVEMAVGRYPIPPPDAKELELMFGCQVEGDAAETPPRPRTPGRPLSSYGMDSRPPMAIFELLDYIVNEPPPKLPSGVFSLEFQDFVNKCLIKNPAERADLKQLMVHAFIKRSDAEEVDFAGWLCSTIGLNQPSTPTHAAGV

[13] = target: T2, TGF-beta receptor type-1 (Homo sapiens) (UniProt P36897); test: Inhibition of TGFBR1 (unknown origin) assessed as residual activity at 1000 nM by KINOMEscan analysis relative to control
T2 sequence (whole entry): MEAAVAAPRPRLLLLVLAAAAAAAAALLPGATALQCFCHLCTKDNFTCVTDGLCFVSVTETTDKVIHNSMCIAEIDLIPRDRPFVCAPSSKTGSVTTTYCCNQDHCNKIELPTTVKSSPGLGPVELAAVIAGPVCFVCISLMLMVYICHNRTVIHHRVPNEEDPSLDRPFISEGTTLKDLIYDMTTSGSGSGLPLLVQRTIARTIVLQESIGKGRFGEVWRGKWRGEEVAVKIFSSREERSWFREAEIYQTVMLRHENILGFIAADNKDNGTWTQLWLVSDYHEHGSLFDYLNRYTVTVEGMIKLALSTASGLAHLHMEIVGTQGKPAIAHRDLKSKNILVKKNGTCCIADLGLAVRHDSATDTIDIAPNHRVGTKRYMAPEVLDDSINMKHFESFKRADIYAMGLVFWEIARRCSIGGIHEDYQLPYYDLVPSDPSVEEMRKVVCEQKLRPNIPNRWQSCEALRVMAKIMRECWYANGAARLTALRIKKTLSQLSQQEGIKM

[14] = target: Serine/threonine-protein kinase VRK2 (Homo sapiens) (UniProt Q86Y07); test: Inhibition of VRK2 (unknown origin) assessed as residual activity at 1000 nM by KINOMEscan analysis relative to control
Sequence of Serine/threonine-protein kinase VRK2 (Homo sapiens) (Q86Y07 whole entry): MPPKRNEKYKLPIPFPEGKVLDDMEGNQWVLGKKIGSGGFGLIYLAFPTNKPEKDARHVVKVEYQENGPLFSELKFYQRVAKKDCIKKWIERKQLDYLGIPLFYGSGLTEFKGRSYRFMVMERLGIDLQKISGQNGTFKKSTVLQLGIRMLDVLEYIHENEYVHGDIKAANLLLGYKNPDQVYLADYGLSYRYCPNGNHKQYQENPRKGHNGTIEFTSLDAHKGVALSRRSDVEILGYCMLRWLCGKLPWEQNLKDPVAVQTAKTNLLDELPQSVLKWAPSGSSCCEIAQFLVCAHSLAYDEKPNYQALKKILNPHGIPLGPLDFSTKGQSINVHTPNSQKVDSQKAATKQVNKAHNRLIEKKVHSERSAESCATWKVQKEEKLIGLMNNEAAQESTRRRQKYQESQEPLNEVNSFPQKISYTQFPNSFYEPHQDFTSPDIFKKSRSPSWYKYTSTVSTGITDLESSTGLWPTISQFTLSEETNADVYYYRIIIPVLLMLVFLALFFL

Structure (SMILES)	Activity [1]	Activity [2]	Activity [3]	Activity [4]	Activity [5]	Activity [6]	Activity [7]	Activity [8]	Activity [9]	Activity [10]	Activity [11]	Activity [12]	Activity [13]	Activity [14]
COc1cc2nc(C)nc(N[C@H](C)c3cccc(-c4cn[nH]c4)c3)c2cc1OC	87%	77%	72%	88%	90%	78%	84%	99%	100%	64%	97%	85%	100%	93%
COc1cc2ncnc(N[C@H](C)c3cccc4ccccc34)c2cc1OC	100%	100%	92%	95%	97%	96%	86%	100%	98%	91%	88%	96%	100%	81%
